Source: PubChem BioAssay AID248 (DTP/NCI, 2004)
“And” between values parts separate entries of the source, which are not always exact repeats. Equal values may be shown once. Toxic doses and inconclusive results are not listed. Cut-off read from the data, not from the text of the source: active = T/C of 150% or more; inactive = T/C below 125%.

System: L1210 leukemia ip in BDF1 mice, survival T/C
Test: NCI In Vivo Anticancer Drug Screen. Data for tumor model L1210 Leukemia (intraperitoneal) in B6D2F1 (BDF1) mice
Settings: endpoint: mean survival time, higher = longer survival
Summary of the method: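 Read-out is survival time, reported as the treated-group measurement over the vehicle-control measurement.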

[1] = dose: 100.0 mg/kg/injection, schedule: Q01DX001 (ip), vehicle: saline
[2] = dose: 200.0 mg/kg/injection, schedule: Q01DX001 (ip), vehicle: saline
[3] = dose: 400.0 mg/kg/injection, schedule: Q01DX001 (ip), vehicle: saline
[4] = dose: 100.0 mg/kg/injection, schedule: Q01DX001 (ip), vehicle: carboxymethylcellulose (CMC)
[5] = dose: 200.0 mg/kg/injection, schedule: Q01DX001 (ip), vehicle: carboxymethylcellulose (CMC)
[6] = dose: 400.0 mg/kg/injection, schedule: Q01DX001 (ip), vehicle: carboxymethylcellulose (CMC)

Measured: T/C

O=C(O)C1=C(C(=O)Nc2cccc3cccnc23)C2C=CC1O2 (stereo unspecified)
inactive: [1] 96 % of control | [2] 97 % of control | [3] 95 % of control

c1ccc(P(=NC2CCCCCC2)(c2ccccc2)c2ccccc2)cc1
inactive: dose: 100.0 mg/kg/injection, schedule: Q01DX001 (ip), vehicle: acetone 95 % of control | dose: 200.0 mg/kg/injection, schedule: Q01DX001 (ip), vehicle: acetone 94 % of control

C/C=C/C(=O)Nc1ccc(Cl)c(Cl)c1
inactive: dose: 100.0 mg/kg/injection, schedule: Q04DX002 (ip), vehicle: Klucel (hydroxypropylcellulose) (HPC) 94 % of control | dose: 200.0 mg/kg/injection, schedule: Q04DX002 (ip), vehicle: Klucel (hydroxypropylcellulose) (HPC) 90 % of control | dose: 400.0 mg/kg/injection, schedule: Q04DX002 (ip), vehicle: Klucel (hydroxypropylcellulose) (HPC) 90 % of control

Cn1c(C(C)(C)O)cc2ccccc21
inactive: dose: 100.0 mg/kg/injection, schedule: Q04DX003 (ip), vehicle: saline with Tween-80 102 % of control | dose: 200.0 mg/kg/injection, schedule: Q04DX003 (ip), vehicle: saline with Tween-80 107 % of control | dose: 400.0 mg/kg/injection, schedule: Q04DX003 (ip), vehicle: saline with Tween-80 100 % of control

COc1cccc(/C=C(\S)C(=O)O)c1O
inactive: [4] 86 % of control | [5] 89 % of control | [6] 89 % of control

CCCNC(=O)NCCN(CC)c1ccccc1
inactive: [4] 97 % of control | dose: 100.0 mg/kg/injection, schedule: Q01DX009 (ip), vehicle: carboxymethylcellulose (CMC) 93 % of control and 101 % of control | dose: 100.0 mg/kg/injection, schedule: Q04DX002 (ip), vehicle: carboxymethylcellulose (CMC) 94 % of control and 97 % of control | dose: 100.0 mg/kg/injection, schedule: Q04DX003 (ip), vehicle: carboxymethylcellulose (CMC) 100 % of control | [5] 96 % of control | dose: 200.0 mg/kg/injection, schedule: Q01DX009 (ip), vehicle: carboxymethylcellulose (CMC) 104 % of control and 87 % of control | dose: 200.0 mg/kg/injection, schedule: Q04DX002 (ip), vehicle: carboxymethylcellulose (CMC) 105 % of control and 87 % of control | dose: 200.0 mg/kg/injection, schedule: Q04DX003 (ip), vehicle: carboxymethylcellulose (CMC) 109 % of control | [6] 96 % of control | dose: 400.0 mg/kg/injection, schedule: Q01DX009 (ip), vehicle: carboxymethylcellulose (CMC) 93 % of control and 103 % of control | dose: 400.0 mg/kg/injection, schedule: Q04DX002 (ip), vehicle: carboxymethylcellulose (CMC) 93 % of control and 97 % of control | dose: 400.0 mg/kg/injection, schedule: Q04DX003 (ip), vehicle: carboxymethylcellulose (CMC) 102 % of control

Cc1ccc(Nc2ccc([N+](=O)[O-])cc2[N+](=O)[O-])c(C)c1
inactive: dose: 100.0 mg/kg/injection, schedule: Q01DX009 (ip), vehicle: Klucel (hydroxypropylcellulose) (HPC) 94 % of control | dose: 100.0 mg/kg/injection, schedule: Q04DX003 (ip), vehicle: Klucel (hydroxypropylcellulose) (HPC) 96 % of control | dose: 200.0 mg/kg/injection, schedule: Q01DX009 (ip), vehicle: Klucel (hydroxypropylcellulose) (HPC) 101 % of control | dose: 200.0 mg/kg/injection, schedule: Q04DX003 (ip), vehicle: Klucel (hydroxypropylcellulose) (HPC) 91 % of control | dose: 400.0 mg/kg/injection, schedule: Q01DX009 (ip), vehicle: Klucel (hydroxypropylcellulose) (HPC) 103 % of control | dose: 400.0 mg/kg/injection, schedule: Q04DX003 (ip), vehicle: Klucel (hydroxypropylcellulose) (HPC) 98 % of control

O=S(=O)(O)c1cccc(N=Nc2c(S(=O)(=O)O)cc3cc(S(=O)(=O)O)c(N=Nc4cccc(S(=O)(=O)O)c4)c(O)c3c2O)c1
inactive: dose: 100.0 mg/kg/injection, schedule: Q01DX009 (ip), vehicle: saline with Tween-80 109 % of control | dose: 100.0 mg/kg/injection, schedule: Q04DX003 (ip), vehicle: saline 116 % of control | dose: 200.0 mg/kg/injection, schedule: Q01DX009 (ip), vehicle: saline with Tween-80 97 % of control | dose: 200.0 mg/kg/injection, schedule: Q04DX003 (ip), vehicle: saline 111 % of control | dose: 400.0 mg/kg/injection, schedule: Q01DX009 (ip), vehicle: saline with Tween-80 108 % of control | dose: 400.0 mg/kg/injection, schedule: Q04DX003 (ip), vehicle: saline 103 % of control

N#Cc1[nH]cnc1N
inactive: [1] 94 % of control | [2] 105 % of control | [3] 97 % of control
